The source of these data is patent US8796289B2 (AbbVie Inc., priority 2011, dated 2014).

Chain of GST-tagged-Wee1 kinase (P30291 whole entry): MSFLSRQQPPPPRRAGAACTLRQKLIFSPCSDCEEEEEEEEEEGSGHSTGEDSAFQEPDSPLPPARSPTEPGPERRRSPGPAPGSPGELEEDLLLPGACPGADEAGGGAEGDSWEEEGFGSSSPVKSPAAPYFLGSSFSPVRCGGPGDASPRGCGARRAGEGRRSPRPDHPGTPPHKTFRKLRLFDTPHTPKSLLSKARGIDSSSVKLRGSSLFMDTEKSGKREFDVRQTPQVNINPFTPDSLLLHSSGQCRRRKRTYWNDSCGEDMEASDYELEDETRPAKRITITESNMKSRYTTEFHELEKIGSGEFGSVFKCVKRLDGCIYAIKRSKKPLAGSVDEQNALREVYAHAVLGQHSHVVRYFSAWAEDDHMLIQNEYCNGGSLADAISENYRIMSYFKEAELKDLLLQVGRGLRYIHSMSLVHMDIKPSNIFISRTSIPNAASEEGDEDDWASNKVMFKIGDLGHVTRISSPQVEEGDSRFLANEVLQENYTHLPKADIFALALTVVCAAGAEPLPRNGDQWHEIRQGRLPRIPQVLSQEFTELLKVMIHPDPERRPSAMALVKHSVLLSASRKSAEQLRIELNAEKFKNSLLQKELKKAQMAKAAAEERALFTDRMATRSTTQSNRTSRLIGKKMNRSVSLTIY

The target in the experiment is GST-tagged-Wee1 kinase (Homo sapiens, UniProt P30291). Briefly: Wee1 time-resolved fluorescence equilibrium binding assay (displacement of Oregon Green-labeled ATP-competitive kinase probe). The protocol:
Wee1 kinase was assayed using a time-resolved fluorescence equilibrium binding assay monitoring displacement of a rapidly reversible Oregon Green-labeled ATP-competitive kinase probe (N-(2-(2-(2-(4-(4-(5-chloro-4-(2-(1-hydroxycyclobutyl)thiazol-5-yl)-1H-pyrrolo[2,3-b]pyridin-2-yl)phenyl)piperazin-1-yl)ethoxy)ethoxy)ethyl)-2′,7′-difluoro-3′,6′-dihydroxy-3-oxo-3H-spiro[isobenzofuran-1,9′-xanthene]-5-carboxamide) by competitive Wee1 inhibitors.
As usually defined, the Ki is the equilibrium dissociation constant of an inhibitor or competing ligand from its target. Read a low Ki as tighter binding. Take `CN1CCN(c2ccc(Nc3ncc4c(=O)n(-c5c(Cl)cccc5Cl)nc(-c5cccc(CN6CCCCC6)c5)c4n3)cc2)CC1` [Example 157, 6-(2,6-dichlorophenyl)-2-{[4-(4-methylpiperazin-1-yl)phenyl]amino}-8-[3-(piperidin-1-ylmethyl)phenyl]pyrimido[4,5-d]pyridazin-5(6H)-one]: the affinity corresponds to a Ki of 0.05 nM.
For the compound `CN1CCN(c2ccc(Nc3ncc4c(=O)n(-c5c(Cl)cccc5Cl)nc(-c5cccc(CNC6CCC6)c5)c4n3)cc2)CC1` [Example 158, 8-{3-[(cyclobutylamino)methyl]phenyl}-6-(2,6-dichlorophenyl)-2-{[4-(4-methylpiperazin-1-yl)phenyl]amino}pyrimido[4,5-d]pyridazin-5(6H)-one], the Ki was 0.2 nM.
As for `COC(=O)c1cccc(-c2nn(-c3c(Cl)cccc3Cl)c(=O)c3cnc(Nc4ccc(N5CCN(C)CC5)cc4)nc23)n1` [Example 159, methyl 6-[6-(2,6-dichlorophenyl)-2-{[4-(4-methylpiperazin-1-yl)phenyl]amino}-5-oxo-5,6-dihydropyrimido[4,5-d]pyridazin-8-yl]pyridine-2-carboxylate], the figure is 0.06 nM.
Under `CN1CCN(c2ccc(Nc3ncc4c(=O)n(-c5c(Cl)cccc5Cl)nc(-c5cccc(C(C)(C)O)n5)c4n3)cc2)CC1` [Example 160, 6-(2,6-dichlorophenyl)-8-[6-(2-hydroxypropan-2-yl)pyridin-2-yl]-2-{[4-(4-methylpiperazin-1-yl)phenyl]amino}pyrimido[4,5-d]pyridazin-5(6H)-one] stands 0.1 nM; under `C=CCn1nc(-c2cccs2)c2nc(Nc3ccc(N4CCN(C(C)C)CC4)c(OC)c3)ncc2c1=O` [Example 161, 6-allyl-2-{[4-(4-isopropylpiperazin-1-yl)-3-methoxyphenyl]amino}-8-(2-thienyl)pyrimido[4,5-d]pyridazin-5(6H)-one], 3 nM.
Compound `C=CCn1nc(-c2cccs2)c2nc(Nc3ccc4c(c3)CN(C)CC4)ncc2c1=O` [Example 162, 6-allyl-2-[(2-methyl-1,2,3,4-tetrahydroisoquinolin-7-yl)amino]-8-(2-thienyl)pyrimido[4,5-d]pyridazin-5(6H)-one] registered a Ki of 4 nM.
On to `C=CCn1nc(-c2cccs2)c2nc(Nc3ccc(N4CCCN(C(C)C)CC4)c(C)c3)ncc2c1=O` [Example 163, 6-allyl-2-{[4-(4-isopropyl-1,4-diazepan-1-yl)-3-methylphenyl]amino}-8-(2-thienyl)pyrimido[4,5-d]pyridazin-5(6H)-one], for which the Ki amounted to 4 nM.
As for `Cc1ccccc1-n1nc(-c2cccs2)c2nc(Nc3ccc4c(c3)CN(C)CC4)ncc2c1=O` [Example 164, 6-(2-methylphenyl)-2-[(2-methyl-1,2,3,4-tetrahydroisoquinolin-7-yl)amino]-8-(2-thienyl)pyrimido[4,5-d]pyridazin-5(6H)-one], the figure is 0.5 nM; as for `O=c1c2cnc(Nc3ccc(S(=O)(=O)N4CCOCC4)cc3)nc2c(-c2cccs2)nn1-c1ccccc1Cl` [Example 165, 6-(2-chlorophenyl)-2-{[4-(morpholin-4-ylsulfonyl)phenyl]amino}-8-(2-thienyl)pyrimido[4,5-d]pyridazin-5(6H)-one], more than 3140 nM.
As for `CN1CCc2ccc(Nc3ncc4c(=O)n(-c5ccccc5Cl)nc(-c5cccs5)c4n3)cc2C1` [Example 167, 6-(2-chlorophenyl)-2-[(2-methyl-1,2,3,4-tetrahydroisoquinolin-7-yl)amino]-8-(2-thienyl)pyrimido[4,5-d]pyridazin-5(6H)-one], the figure is 0.4 nM; as for `O=C1CCCN1c1ccc(Nc2ncc3c(=O)n(-c4ccccc4Cl)nc(-c4ccccc4)c3n2)cc1` [Example 168, 6-(2-chlorophenyl)-2-{[4-(2-oxopyrrolidin-1-yl)phenyl]amino}-8-phenylpyrimido[4,5-d]pyridazin-5(6H)-one], 2 nM.
Take `C=CCn1nc(-c2ccccc2)c2nc(Nc3ccc(N4CCN(C(C)C)CC4)c(C)c3)ncc2c1=O` [Example 169, 6-allyl-2-{[4-(4-isopropylpiperazin-1-yl)-3-methylphenyl]amino}-8-phenylpyrimido[4,5-d]pyridazin-5(6H)-one]: the affinity, expressed as Ki, was 2 nM.
Under `Cc1cc(Nc2ncc3c(=O)n(-c4ccccc4C)nc(-c4ccccc4)c3n2)ccc1N1CCN(C(C)C)CC1` [Example 170, 2-{[4-(4-isopropylpiperazin-1-yl)-3-methylphenyl]amino}-6-(2-methylphenyl)-8-phenylpyrimido[4,5-d]pyridazin-5(6H)-one] stands 0.7 nM; under `Cc1ccccc1-n1nc(-c2ccccc2)c2nc(Nc3ccc4c(c3)CN(C)CC4)ncc2c1=O` [Example 171, 6-(2-methylphenyl)-2-[(2-methyl-1,2,3,4-tetrahydroisoquinolin-7-yl)amino]-8-phenylpyrimido[4,5-d]pyridazin-5(6H)-one], 0.6 nM.
In turn, `C=CCn1nc(-c2ccccc2)c2nc(Nc3ccc4c(c3)CN(C)CC43CC3)ncc2c1=O` [Example 172, 6-allyl-2-[(2′-methyl-2′,3′-dihydro-1′H-spiro[cyclopropane-1,4′-isoquinolin]-7′-yl)amino]-8-phenylpyrimido[4,5-d]pyridazin-5(6H)-one] yielded a Ki of 2.5 nM.
`Cc1ccccc1-n1nc(-c2ccccc2)c2nc(Nc3ccc4c(c3)CN(C)CC43CC3)ncc2c1=O` [Example 173, 2-[(2′-methyl-2′,3′-dihydro-1′H-spiro[cyclopropane-1,4′-isoquinolin]-7′-yl)amino]-6-(2-methylphenyl)-8-phenylpyrimido[4,5-d]pyridazin-5(6H)-one] displayed a Ki of 0.4 nM.
Consider `COc1cc(Nc2ncc3c(=O)n(-c4ccccc4Cl)nc(-c4cccs4)c3n2)ccc1N1CCN(C(C)C)CC1` [Example 174, 6-(2-chlorophenyl)-2-{[4-(4-isopropylpiperazin-1-yl)-3-methoxyphenyl]amino}-8-(2-thienyl)pyrimido[4,5-d]pyridazin-5(6H)-one], for which the Ki was 0.1 nM.
`CC(=O)c1cccc(-c2nn(-c3c(Cl)cccc3Cl)c(=O)c3cnc(Nc4ccc(N5CCN(C)CC5)cc4)nc23)n1` [Example 175, 8-(6-acetylpyridin-2-yl)-6-(2,6-dichlorophenyl)-2-{[4-(4-methylpiperazin-1-yl)phenyl]amino}pyrimido[4,5-d]pyridazin-5(6H)-one] had a Ki of 0.2 nM.
`CCC(O)(CC)c1cccc(-c2nn(-c3c(Cl)cccc3Cl)c(=O)c3cnc(Nc4ccc(N5CCN(C)CC5)cc4)nc23)n1` [Example 176, 6-(2,6-dichlorophenyl)-8-[6-(3-hydroxypentan-3-yl)pyridin-2-yl]-2-{[4-(4-methylpiperazin-1-yl)phenyl]amino}pyrimido[4,5-d]pyridazin-5(6H)-one]: the affinity, expressed as Ki, was 36 nM.
Under `CN1CCN(c2ccc(Nc3ncc4c(=O)n(-c5ccccc5)nc(-c5ccncn5)c4n3)cc2)CC1` [Example 177, 2-{[4-(4-methylpiperazin-1-yl)phenyl]amino}-6-phenyl-8-(pyrimidin-4-yl)pyrimido[4,5-d]pyridazin-5(6H)-one] stands 19 nM; under `CN1CCN(c2ccc(Nc3ncc4c(=O)n(-c5ccccc5Cl)nc(-c5ccncn5)c4n3)cc2)CC1` [Example 178, 6-(2-chlorophenyl)-2-{[4-(4-methylpiperazin-1-yl)phenyl]amino}-8-(pyrimidin-4-yl)pyrimido[4,5-d]pyridazin-5(6H)-one], 2 nM; under `CN1CCN(c2ccc(Nc3ncc4c(=O)n(-c5c(Cl)cccc5Cl)nc(-c5ccncn5)c4n3)cc2)CC1` [Example 179, 6-(2,6-dichlorophenyl)-2-{[4-(4-methylpiperazin-1-yl)phenyl]amino}-8-(pyrimidin-4-yl)pyrimido[4,5-d]pyridazin-5(6H)-one], 0.1 nM.
`CN1CCN(c2ccc(Nc3ncc4c(=O)n(-c5c(Cl)cccc5Cl)nc(-c5cccc(N6CCCC6)n5)c4n3)cc2)CC1` [Example 180, 6-(2,6-dichlorophenyl)-2-{[4-(4-methylpiperazin-1-yl)phenyl]amino}-8-[6-(pyrrolidin-1-yl)pyridin-2-yl]pyrimido[4,5-d]pyridazin-5(6H)-on] displayed a Ki of 2 nM.
As for `CN1CCN(c2ccc(Nc3ncc4c(=O)n(-c5ccccc5Cl)nc(-c5cccc(N6CCCC6)n5)c4n3)cc2)CC1` [Example 181, 6-(2-chlorophenyl)-2-{[4-(4-methylpiperazin-1-yl)phenyl]amino}-8-[6-(pyrrolidin-1-yl)pyridin-2-yl]pyrimido[4,5-d]pyridazin-5(6H)-one], the Ki was determined as 6 nM.
The compound `Cc1ccccc1-n1nc(-c2cccc(N3CCCC3)n2)c2nc(Nc3ccc(N4CCN(C)CC4)cc3)ncc2c1=O` [Example 182, 6-(2-methylphenyl)-2-{[4-(4-methylpiperazin-1-yl)phenyl]amino}-8-[6-(pyrrolidin-1-yl)pyridin-2-yl]pyrimido[4,5-d]pyridazin-5(6H)-one] registered a Ki of 12 nM.
Under `CNCc1cccc(-c2nn(-c3c(Cl)cccc3Cl)c(=O)c3cnc(Nc4ccc(N5CCN(C)CC5)cc4)nc23)c1` [Example 183, 6-(2,6-dichlorophenyl)-8-{3-[(methylamino)methyl]phenyl}-2-{[4-(4-methylpiperazin-1-yl)phenyl]amino}pyrimido[4,5-d]pyridazin-5(6H)-one] stands 0.02 nM; under `CN(C)Cc1cccc(-c2nn(-c3c(Cl)cccc3Cl)c(=O)c3cnc(Nc4ccc(N5CCN(C)CC5)cc4)nc23)c1` [Example 184, 6-(2,6-dichlorophenyl)-8-{3-[(dimethylamino)methyl]phenyl}-2-{[4-(4-methylpiperazin-1-yl)phenyl]amino}pyrimido[4,5-d]pyridazin-5(6H)-one], 0.03 nM; under `CC(=O)c1cccc(-c2nn(-c3c(Cl)cccc3Cl)c(=O)c3cnc(Nc4ccc(N5CCN(C)CC5)cc4)nc23)c1` [Example 185, 8-(3-acetylphenyl)-6-(2,6-dichlorophenyl)-2-{[4-(4-methylpiperazin-1-yl)phenyl]amino}pyrimido[4,5-d]pyridazin-5(6H)-one], 0.04 nM.
